According to PubChem BioAssay (NCI):
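Results reflect a 48-hour exposure of cells in 96-well plates to compound at five concentrations. GI50 marks 50% less growth. The concentration for full growth arrest is given as TGI.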

Key:
Assay in all cases: NCI tumour cell line growth inhibition, 48 h
HS 578T breast = system: HS 578T breast
PC-3 prostate = system: PC-3 prostate
P388 leukemia = system: P388 leukemia
P388/ADR leukemia = system: P388/ADR leukemia
SN12K1 renal = system: SN12K1 renal

Structure (SMILES)	TGI (HS 578T breast) [µM]	TGI (PC-3 prostate) [µM]	further results
COc1ccc2c(c1)C(=O)/C(=C/c1ccccc1)C2	> 100	> 100	–
COc1cc(CN(C)N2C(=O)c3cccc4cc([N+](=O)[O-])cc(c34)C2=O)cc(OC)c1OC	> 100	> 100	–
O=C(NC/C=C/CO)c1ccccc1	–	–	TGI (P388 leukemia): > 100 µM; TGI (P388/ADR leukemia): > 100 µM; TGI (SN12K1 renal): > 100 µM
CCCCN(CCCC)C1(c2cc3ccccc3s2)CCCCC1	–	34.1	–
C=C1CC2(C)CCC(OC(=O)C3(C)OC3C)C(C)(OC(C)=O)C2CC1=C(C)C (stereo not drawn)	> 100	> 100	–
CCC1CN2CCc3cc(OC)c(OC)cc3C2CC1CC1c2cc(OC)c(OC)cc2CCN1C(=O)C(Cc1c[nH]c2ccccc12)NC(=O)OC(C)(C)C (stereo not drawn)	–	10.5	–
O=C(O)CSc1nc2ccccc2[nH]1	> 100	> 100	–
CC12CCC3C(CCC4(O)C=CCCC34C=O)C1(O)CC(O)C2c1ccc(=O)oc1 (stereo not drawn)	–	–	TGI (P388 leukemia): 500 µM; TGI (P388/ADR leukemia): > 500 µM; TGI (SN12K1 renal): 0.108 µM
O=C1CNC(=O)N1	–	–	TGI (P388 leukemia): > 520 µM; TGI (P388/ADR leukemia): > 630 µM; TGI (SN12K1 renal): > 1120 µM
CCOC(=O)C(CC(C)C)NC(=O)C(N)Cc1ccc(N(CCCl)CCCl)cc1 (stereo not drawn)	44.5	32.2	–
CCOC(=O)c1csc(NC(=O)CCN2CCOCC2)n1	–	> 100	–
NCCSC1(O)C(=O)c2ccccc2-c2ccccc21 (stereo not drawn)	6.2	2.56	–
Fc1cc(C2=Nn3c(nnc3-c3cc(F)c(Cl)cc3Cl)SC2)c(Cl)cc1Cl	55	> 100	GI50 (HS 578T breast): 21.9 µM; GI50 (PC-3 prostate): 16.9 µM
